Assay results taken from US10285989B2, “Pyrimidinone amide compounds as PDE2 inhibitors” (Merck Sharp & Dohme Corp., priority 2015, dated 2019).
Like-named read-outs stand apart in the source and are kept apart here.

Assays:
Rhesus PDE2A3 = Rhesus PDE2A3 (Macaca mulatta, UniProt B3VTJ2); test: PDE2 fluorescence polarization (IMAP FP) inhibition assay, rhesus PDE2A3; type: biochemical, rhesus macaque
human PDE2A1 = human PDE2A1 (Homo sapiens (Human), UniProt O00408); test: PDE2 IMAP FP inhibition assay, human PDE2A1 (selectivity panel format); type: biochemical
Sequence of human PDE2A1 (O00408 other isoform, or with tags, fused parts or gaps): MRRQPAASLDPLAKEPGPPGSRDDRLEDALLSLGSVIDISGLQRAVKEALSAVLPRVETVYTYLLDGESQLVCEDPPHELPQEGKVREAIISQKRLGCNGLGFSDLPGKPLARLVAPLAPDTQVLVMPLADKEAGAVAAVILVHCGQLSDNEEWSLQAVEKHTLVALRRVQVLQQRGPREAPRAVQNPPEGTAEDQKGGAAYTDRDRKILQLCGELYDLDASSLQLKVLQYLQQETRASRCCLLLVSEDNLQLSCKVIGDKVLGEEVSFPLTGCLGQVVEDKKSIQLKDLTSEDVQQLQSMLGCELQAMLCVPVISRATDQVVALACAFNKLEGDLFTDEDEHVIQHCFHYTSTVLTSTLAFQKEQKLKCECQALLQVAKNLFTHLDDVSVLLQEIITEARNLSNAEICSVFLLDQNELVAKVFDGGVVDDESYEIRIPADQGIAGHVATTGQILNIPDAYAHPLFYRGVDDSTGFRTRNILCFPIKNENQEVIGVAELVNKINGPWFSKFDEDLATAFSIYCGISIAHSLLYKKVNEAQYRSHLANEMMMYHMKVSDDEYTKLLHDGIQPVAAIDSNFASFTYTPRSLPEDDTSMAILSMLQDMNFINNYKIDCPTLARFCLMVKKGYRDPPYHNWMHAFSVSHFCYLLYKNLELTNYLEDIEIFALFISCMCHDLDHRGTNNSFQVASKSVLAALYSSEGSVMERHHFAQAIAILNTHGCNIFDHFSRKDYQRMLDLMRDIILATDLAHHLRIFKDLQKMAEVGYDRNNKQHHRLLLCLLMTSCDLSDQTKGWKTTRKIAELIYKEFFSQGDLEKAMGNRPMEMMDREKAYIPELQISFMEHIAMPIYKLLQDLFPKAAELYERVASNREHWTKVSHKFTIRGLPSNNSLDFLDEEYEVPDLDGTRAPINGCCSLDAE
Procedure, shortened: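 IMAP fluorescence polarization assay; substrate 50 nM FAM-cAMP with 1000 nM cGMP, enzyme at ~20% conversion, in 10 mM Tris pH 7.2, 10 mM MgCl2, 1 mM DTT, 0.01% Tween-20. 60 min room temperature, stopped with IMAP binding reagent, 1 h, then parallel/perpendicular fluorescence read.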

P-glycoprotein (P-gp) = P-glycoprotein (P-gp) (Homo sapiens (Human), UniProt P08183); test: P-gp transport, experimental BA/AB ratio, human; type: in vitro ADME; settings: LLC-PK1, 1 μM substrate concentration
Sequence of P-glycoprotein (P-gp) (P08183 whole entry): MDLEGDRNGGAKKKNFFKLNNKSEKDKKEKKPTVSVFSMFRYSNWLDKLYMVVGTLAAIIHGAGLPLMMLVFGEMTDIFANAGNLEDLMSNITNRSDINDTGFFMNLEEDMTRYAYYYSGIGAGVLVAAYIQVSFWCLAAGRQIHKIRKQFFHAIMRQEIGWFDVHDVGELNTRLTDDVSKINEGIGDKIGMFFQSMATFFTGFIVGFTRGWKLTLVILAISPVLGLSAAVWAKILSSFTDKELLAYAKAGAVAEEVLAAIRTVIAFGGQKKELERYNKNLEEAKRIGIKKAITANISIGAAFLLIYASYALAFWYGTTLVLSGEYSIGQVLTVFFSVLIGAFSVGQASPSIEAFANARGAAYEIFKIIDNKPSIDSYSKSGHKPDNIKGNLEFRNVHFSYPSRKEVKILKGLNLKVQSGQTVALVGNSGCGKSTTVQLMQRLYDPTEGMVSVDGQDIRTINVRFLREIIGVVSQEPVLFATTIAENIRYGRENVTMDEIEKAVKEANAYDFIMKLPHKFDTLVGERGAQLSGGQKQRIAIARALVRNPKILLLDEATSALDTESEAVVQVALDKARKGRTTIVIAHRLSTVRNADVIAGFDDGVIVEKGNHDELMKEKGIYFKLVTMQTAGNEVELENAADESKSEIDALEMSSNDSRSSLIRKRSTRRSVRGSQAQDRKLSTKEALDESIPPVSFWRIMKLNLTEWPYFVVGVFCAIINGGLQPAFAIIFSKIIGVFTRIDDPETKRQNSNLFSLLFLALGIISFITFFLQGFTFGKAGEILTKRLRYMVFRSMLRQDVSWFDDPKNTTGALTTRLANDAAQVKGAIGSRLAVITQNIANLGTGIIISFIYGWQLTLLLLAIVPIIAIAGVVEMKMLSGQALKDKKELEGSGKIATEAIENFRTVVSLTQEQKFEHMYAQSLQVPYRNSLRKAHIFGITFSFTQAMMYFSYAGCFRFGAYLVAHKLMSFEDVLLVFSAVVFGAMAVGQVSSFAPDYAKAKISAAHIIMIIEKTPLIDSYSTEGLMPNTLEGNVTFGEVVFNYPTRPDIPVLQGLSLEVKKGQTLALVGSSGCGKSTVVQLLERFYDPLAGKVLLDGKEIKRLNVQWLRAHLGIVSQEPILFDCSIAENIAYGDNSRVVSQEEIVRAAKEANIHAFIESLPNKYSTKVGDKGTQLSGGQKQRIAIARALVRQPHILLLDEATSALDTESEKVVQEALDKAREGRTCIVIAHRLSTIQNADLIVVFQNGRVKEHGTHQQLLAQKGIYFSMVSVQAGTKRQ
Source text: (§1) See Doan et al. “Passive permeability and P-glycoprotein-mediated efflux differentiate central nervous system (CNS) and non-CNS marketed drugs”, J. Pharm. Exper. […] Desirable human BA/AB ratio is less than 2.0. […] See, for example, Desai, et al. Integration of in Silico and in Vitro Tools for Scaffold Optimization during Drug Discovery: Predicting P-glycoprotein Efflux” Mol. Pharmac.

[1] = target: P-glycoprotein (P-gp, rat Mdr1a) (Rattus norvegicus, UniProt Q6PSM0); test: P-gp transport, experimental BA/AB ratio, rat LLC-Mdr1a; type: in vitro ADME; settings: LLC-PK1; rat LLC-Mdrla; 1 μM substrate concentration
Sequence of P-glycoprotein (P-gp, rat Mdr1a) (Q6PSM0 1-1272): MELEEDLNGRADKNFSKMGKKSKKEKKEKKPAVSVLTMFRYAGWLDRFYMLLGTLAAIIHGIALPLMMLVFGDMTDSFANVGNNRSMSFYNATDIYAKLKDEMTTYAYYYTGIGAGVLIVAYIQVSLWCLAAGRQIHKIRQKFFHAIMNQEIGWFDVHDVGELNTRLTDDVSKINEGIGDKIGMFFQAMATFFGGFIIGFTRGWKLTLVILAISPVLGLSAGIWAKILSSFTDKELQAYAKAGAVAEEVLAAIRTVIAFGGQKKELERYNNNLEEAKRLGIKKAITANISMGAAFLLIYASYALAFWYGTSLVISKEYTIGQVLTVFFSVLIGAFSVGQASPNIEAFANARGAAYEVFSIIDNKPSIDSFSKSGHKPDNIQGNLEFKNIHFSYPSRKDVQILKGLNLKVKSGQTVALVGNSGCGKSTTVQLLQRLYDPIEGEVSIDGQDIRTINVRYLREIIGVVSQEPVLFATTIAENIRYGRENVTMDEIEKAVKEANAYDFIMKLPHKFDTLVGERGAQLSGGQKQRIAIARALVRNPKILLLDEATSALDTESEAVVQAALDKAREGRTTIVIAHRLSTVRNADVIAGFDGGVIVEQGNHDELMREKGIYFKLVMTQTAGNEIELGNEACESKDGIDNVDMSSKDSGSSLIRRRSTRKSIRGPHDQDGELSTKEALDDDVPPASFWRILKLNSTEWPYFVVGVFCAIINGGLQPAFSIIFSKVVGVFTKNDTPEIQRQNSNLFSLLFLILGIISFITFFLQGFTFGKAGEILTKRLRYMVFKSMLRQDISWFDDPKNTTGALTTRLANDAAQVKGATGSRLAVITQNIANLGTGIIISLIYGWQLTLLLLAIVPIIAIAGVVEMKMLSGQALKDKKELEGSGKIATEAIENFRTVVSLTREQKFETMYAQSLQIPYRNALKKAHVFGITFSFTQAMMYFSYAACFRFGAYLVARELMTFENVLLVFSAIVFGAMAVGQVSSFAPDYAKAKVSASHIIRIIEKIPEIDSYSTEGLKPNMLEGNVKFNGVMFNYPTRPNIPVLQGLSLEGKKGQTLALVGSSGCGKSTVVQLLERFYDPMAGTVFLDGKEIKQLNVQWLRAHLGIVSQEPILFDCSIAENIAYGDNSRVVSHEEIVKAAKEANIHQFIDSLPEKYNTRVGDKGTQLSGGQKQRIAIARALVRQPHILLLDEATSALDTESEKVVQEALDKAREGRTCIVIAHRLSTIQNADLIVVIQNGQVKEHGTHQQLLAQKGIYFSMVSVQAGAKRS
Source text: as §1

[2] = Lab B, read-out: Rhesus PDE2 Ki (nM) - Lab B
[3] = Lab B, read-out: Human PDE2 Ki (nM) - Lab B
[4] = Rhesus PDE2 Ki (nM) - Lab B, Lab B
[5] = Lab A, read-out: Rhesus PDE2 Ki (nM) - Lab A
[6] = Lab A, read-out: Human PDE2 Ki (nM) - Lab A

Sequence of Rhesus PDE2A3 (B3VTJ2 1-941): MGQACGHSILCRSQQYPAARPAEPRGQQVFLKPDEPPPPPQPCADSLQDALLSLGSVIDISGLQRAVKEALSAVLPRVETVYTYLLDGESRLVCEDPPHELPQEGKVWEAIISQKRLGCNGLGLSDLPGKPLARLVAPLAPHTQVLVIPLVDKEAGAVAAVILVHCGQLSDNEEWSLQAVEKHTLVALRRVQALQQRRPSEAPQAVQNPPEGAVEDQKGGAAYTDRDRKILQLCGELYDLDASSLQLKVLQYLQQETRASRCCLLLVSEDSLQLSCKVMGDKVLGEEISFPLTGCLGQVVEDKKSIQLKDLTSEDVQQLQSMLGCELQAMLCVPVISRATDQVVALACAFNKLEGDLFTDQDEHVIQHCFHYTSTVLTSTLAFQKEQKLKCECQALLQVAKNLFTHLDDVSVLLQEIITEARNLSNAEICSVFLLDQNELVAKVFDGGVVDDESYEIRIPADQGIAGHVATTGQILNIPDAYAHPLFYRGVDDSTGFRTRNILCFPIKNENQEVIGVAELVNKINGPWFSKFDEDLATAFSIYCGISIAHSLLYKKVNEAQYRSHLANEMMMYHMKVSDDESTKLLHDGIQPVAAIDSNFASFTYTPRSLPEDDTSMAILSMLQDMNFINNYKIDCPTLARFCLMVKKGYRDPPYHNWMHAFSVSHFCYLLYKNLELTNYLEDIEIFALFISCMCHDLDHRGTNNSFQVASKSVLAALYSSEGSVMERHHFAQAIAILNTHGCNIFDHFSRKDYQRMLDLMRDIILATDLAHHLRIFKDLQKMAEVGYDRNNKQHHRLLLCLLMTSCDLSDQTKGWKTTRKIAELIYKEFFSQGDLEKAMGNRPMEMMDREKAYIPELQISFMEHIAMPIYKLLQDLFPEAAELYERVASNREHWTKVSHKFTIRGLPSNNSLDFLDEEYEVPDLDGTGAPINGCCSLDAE

Structure (SMILES)	Ki (Rhesus PDE2A3; [2])	Ki (human PDE2A1; [3])	efflux ratio at 1 μM (P-glycoprotein (P-gp))	efflux ratio at 1 μM [1]	Ki (Rhesus PDE2A3; [5])	Ki (human PDE2A1; [6])	Ki (Rhesus PDE2A3; [4])
CC(C)C(C)(NC(=O)c1cc(=O)[nH]c(N(C)C)n1)c1ccc(S(F)(F)(F)(F)F)cc1 (single isomer, unassigned) [Example 173, (S)- or (R)-2-(dimethylamino)-N-{1,2-dimethyl-1-[4-(pentafluoro-λ^6-sulfanyl)phenyl]propyl}-6-oxo-1,6-dihydropyrimidine-4-carboxamide]		6.5 nM	0.8	3.6			6.6 nM
O=C(NC1(c2ccc(C(F)(F)F)c(F)c2)CC1)c1cc(=O)[nH]c(N2CCCC2)n1 [Example 1, N-(1-(3-fluoro-4-(trifluoromethyl)phenyl)cyclopropyl)-6-oxo-2-(pyrrolidin-1-yl)-1,6-dihydropyrimidine-4-carboxamide]			0.8	7.2	1.3 nM	0.48 nM	
CN(C)c1nc(C(=O)N[C@@H](c2ccc(C(F)(F)F)cc2)C(C)(C)C)cc(=O)[nH]1 [Example 2, (R)—N-(2,2-dimethyl-1-(4-(trifluoromethyl)phenyl)propyl)-2-(dimethylamino)-6-oxo-1,6-dihydropyrimidine-4-carboxamide]		0.15 nM	0.6	2.6			0.11 nM
CN(C)c1nc(C(=O)N[C@@H](c2ccc(S(F)(F)(F)(F)F)cc2)C2CC2)cc(=O)[nH]1 [Example 4, (R)—N-(cyclopropyl(4-(pentafluoro-λ^6-sulfanyl)phenyl)methyl)-2-(dimethylamino)-6-oxo-1,6-dihydropyrimidine-4-carboxamide]	1.2 nM	1 nM	0.6	3.1			
CC[C@@H](NC(=O)c1cc(=O)[nH]c(N(C)C)n1)c1ccc(S(F)(F)(F)(F)F)cc1 [Example 5, (R)-2-(dimethylamino)-6-oxo-N-(1-(4-(pentafluoro-λ^6-sulfanyl)phenyl)propyl)-1,6-dihydropyrimidine-4-carboxamide]	1.5 nM	1.3 nM	0.5	3.6	0.69 nM		
C[C@@H](NC(=O)c1cc(=O)[nH]c(N2CCCC2)n1)c1ccc(C(F)(F)F)cc1 [Example 6, (R)-6-oxo-2-(pyrrolidin-1-yl)-N-(1-(4-(trifluoromethyl)phenyl)ethyl)-1,6-dihydropyrimidine-4-carboxamide]			0.5	3.2	2.5 nM	1.7 nM	
C[C@@H](NC(=O)c1cc(=O)[nH]c(N2CCC2)n1)c1ccc(C(F)(F)F)cc1 [Example 10, (R)-2-(azetidin-1-yl)-6-oxo-N-(1-(4-(trifluoromethyl)phenyl)ethyl)-1,6-dihydropyrimidine-4-carboxamide]			0.5	3.1	8.5 nM	8.2 nM	
C[C@@H](NC(=O)c1cc(=O)[nH]c(N2CC[C@H](F)C2)n1)c1ccc(C(F)(F)F)cc1 [Example 12, 2-((S)-3-fluoropyrrolidin-1-yl)-6-oxo-N—((R)-1-(4-(trifluoromethyl)phenyl)ethyl)-1,6-dihydropyrimidine-4-carboxamide]			0.7	9	4.5 nM	1.8 nM	
C[C@@H](NC(=O)c1cc(=O)[nH]c(N2CCC(F)(F)C2)n1)c1ccc(C(F)(F)F)cc1 [Example 13, (R)-2-(3,3-difluoropyrrolidin-1-yl)-6-oxo-N-(1-(4-(trifluoromethyl)phenyl)ethyl)-16-dihydropyrimidine-4-carboxamide]			0.6	5.9	13 nM	9.2 nM	
C[C@@H](NC(=O)c1cc(=O)[nH]c(N2CC(F)C2)n1)c1ccc(C(F)(F)F)cc1 [Example 23, 2-(3-Fluoroazetidin-1-yl)-6-oxo-N-{(1R)-1-[4-(trifluoromethyl)phenyl]ethyl}-1,6-dihydropyrimidine-4-carboxamide]			1.4	7.6	27 nM	16 nM	
O=C(N[C@@H](c1ccc(C(F)(F)F)cc1)C1CC1)c1cc(=O)[nH]c(N2CCCC2)n1 [Example 26]			0.9	4.5	1.4 nM	0.34 nM	

Now from value to molecule, other results behind:

Ki (Rhesus PDE2A3; [2])	Ki (human PDE2A1; [3])	efflux ratio at 1 μM (P-glycoprotein (P-gp))	efflux ratio at 1 μM [1]	Ki (Rhesus PDE2A3; [5])	Ki (human PDE2A1; [6])	Structure (SMILES)	Ki (Rhesus PDE2A3; [4])
1.8 nM	1.9 nM	27.3	47.2			CN(C)c1nc(C(=O)NC(c2ccc(SC(F)(F)F)c(F)c2)C2(C)CC2)cc(=O)[nH]1 (single isomer, unassigned) [Example 120, (R)- or (S)-2-(dimethylamino)-N-[{3-fluoro-4-[(trifluoromethyl)sulfanyl]phenyl}(1-methylcyclopropyl)methyl]-6-oxo-1,6-dihydropyrimidine-4-carboxamide]	
0.22 nM	0.15 nM	1.4	4.8			CN(C)c1nc(C(=O)NC(c2ccc(S(F)(F)(F)(F)F)cc2F)C(C)(C)C)cc(=O)[nH]1 (single isomer, unassigned) [Example 128, (R)- or (S)-2-(dimethylamino)-N-{1-[2-fluoro-4-(pentafluoro-λ^6-sulfanyl)phenyl]-2,2-dimethylpropyl}-6-oxo-1,6-dihydropyrimidine-4-carboxamide]	
1.2 nM	0.89 nM	0.6	1.3			CCC(C)(NC(=O)c1cc(=O)[nH]c(N(C)C)n1)c1ccc(C(F)(F)F)cc1F (single isomer, unassigned) [Example 130, (R)- or (S)-2-(dimethylamino)-N-{1-[2-fluoro-4-(trifluoromethyl)phenyl]-1-methylpropyl}-6-oxo-1,6-dihydro-pyrimidine-4-carboxamide]	
		0.8	7	0.58 nM	0.21 nM	O=C(N[C@@H](c1ccc(SC(F)(F)F)cc1)C1CC1)c1cc(=O)[nH]c(N2CCCC2)n1 [Example 27, N-[(R)-cyclopropyl{4-[(trifluoromethyl)sulfanyl]phenyl}methyl]-6-oxo-2-pyrrolidin-1-yl-1,6-dihydropyrimidine-4-carboxamide]	
0.22 nM	0.37 nM	0.4	2.6	0.19 nM	≤ 5.1 nM	CC(C)[C@@H](NC(=O)c1cc(=O)[nH]c(N(C)C)n1)c1ccc(SC(F)(F)F)cc1 [Example 30, 2-(dimethylamino)-N-[(1R)-2-methyl-1-{4-[(trifluoromethyl)sulfanyl]phenyl}propyl]-6-oxo-1,6-dihydropyrimidine-4-carboxamide]	
	0.11 nM	5.6	10.7			CO[C@H]1CCN(c2nc(C(=O)N[C@@H](c3ccc(C(F)(F)F)cc3)C(C)(C)C)cc(=O)[nH]2)C1 [Example 170, N-{(1R)-2,2-dimethyl-1-[4-(trifluoromethyl)phenyl]propyl}-2-[(3S)-3-methoxypyrrolidin-1-yl]-6-oxo-1,6-dihydropyrimidine-4-carboxamide]	
	1.4 nM	3.1	24.4			CO[C@@H]1CCN(c2nc(C(=O)N[C@@H](c3ccc(C(F)(F)F)cc3)C(C)(C)C)cc(=O)[nH]2)C1 [Example 171, N-{(1R)-2,2-dimethyl-1-[4-(trifluoromethyl)phenyl]propyl}-2-[(3R)-3-methoxypyrrolidin-1-yl]-6-oxo-1,6-dihydropyrimidine-4-carboxamide]	
